Measurements from patent US9341627B2, “Protein structural biomarkers to guide targeted chemotherapies” (priority 2009, dated 2016).

How the values were obtained:
[1] = target: T1, wildtype Eg5 kinesin motor domain (Homo sapiens, UniProt P52732); test: In vitro basal ATPase assay (coupled enzymatic), wildtype Eg5; format: biochemical; conditions: 5 μM motor protein, 1 mM MgATP, 5-22.5 mM NaCl, read-out: IC50, basal ATP hydrolysis
T1 sequence (P52732 1-370): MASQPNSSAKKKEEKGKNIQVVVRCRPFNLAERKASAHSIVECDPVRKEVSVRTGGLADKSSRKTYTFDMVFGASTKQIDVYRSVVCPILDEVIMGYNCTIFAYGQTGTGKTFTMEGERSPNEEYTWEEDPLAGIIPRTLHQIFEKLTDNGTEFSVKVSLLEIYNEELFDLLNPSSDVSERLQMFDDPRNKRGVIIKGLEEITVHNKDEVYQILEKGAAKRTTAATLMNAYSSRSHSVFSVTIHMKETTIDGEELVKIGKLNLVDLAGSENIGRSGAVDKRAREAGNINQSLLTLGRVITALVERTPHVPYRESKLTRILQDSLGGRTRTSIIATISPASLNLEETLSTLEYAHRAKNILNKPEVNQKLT
Protocol: (§1) Basal ATPase activities were measured with a coupled enzymatic assay as previously described (29) with 5 μM motor protein and 1 mM MgATP in a SpectraMax 2E spectrophotometer for high-throughput kinetic measurements as previously described (30). […] Reactions used for calculation of the IC50 values contained between 5 and 22.5 mM NaCl. Data were reproducible with protein samples purified from differing batches of cultured cells from two different laboratories.

[2] = test system: Eg5 E116, D130 and A133 mutants; conditions: all E116, D130 and A133 mutants, to varying degrees
Protocol: as §1

Row | IC50 [1] [µM] | Structure (SMILES) | sensitivity of mutants to inhibitor [2]
1 | 8 | CCOC(=O)C1=C(C)NC(=S)NC1c1cccc(O)c1 (centres unmarked) [monastrol] | 
2 |  | N[C@@H](CSC(c1ccccc1)(c1ccccc1)c1ccccc1)C(=O)O [STC, S-trityl-L-cysteine] | reduced sensitivity
